What follows are molecules tested against T1, ERα protein (HiBiT-tagged) in ESR1_HiBiT KI MCF7 cells (Homo sapiens, UniProt P03372) (assay: Nano Glo HiBiT Lytic Degradation Assay). Settings: 6 hours with compound, 14-point dose response 1:3, bell-shape curve fit, half-maximal effect of first Hill model, read-out: MCF7 ESR1 HiBiT - (DC50).
T1 sequence (P03372 1-595): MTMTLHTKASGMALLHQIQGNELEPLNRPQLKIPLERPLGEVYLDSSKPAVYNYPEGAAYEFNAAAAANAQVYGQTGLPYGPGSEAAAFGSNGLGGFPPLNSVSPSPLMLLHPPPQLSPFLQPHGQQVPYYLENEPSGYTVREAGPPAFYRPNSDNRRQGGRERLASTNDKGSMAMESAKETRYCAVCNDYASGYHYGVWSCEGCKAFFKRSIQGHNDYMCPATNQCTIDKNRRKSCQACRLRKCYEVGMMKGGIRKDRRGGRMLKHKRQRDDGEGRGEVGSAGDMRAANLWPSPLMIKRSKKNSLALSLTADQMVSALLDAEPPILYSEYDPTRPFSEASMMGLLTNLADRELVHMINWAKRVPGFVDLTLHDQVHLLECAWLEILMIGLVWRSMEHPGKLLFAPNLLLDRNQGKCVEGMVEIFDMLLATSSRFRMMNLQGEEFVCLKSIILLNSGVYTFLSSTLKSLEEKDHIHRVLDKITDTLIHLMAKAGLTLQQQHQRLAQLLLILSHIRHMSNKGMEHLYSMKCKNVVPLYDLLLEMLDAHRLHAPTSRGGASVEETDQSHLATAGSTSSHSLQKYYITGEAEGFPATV
Format: cell-based
Summary of the method: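 ESR1_HiBiT knock-in MCF7 cells were seeded 24 h before treatment, then exposed to compounds for 6 h at 37° C (14-point 1:3 curves, 10 mM top stock, 0.1% DMSO final, duplicates). HiBiT-ERα was read by lytic LgBiT luminescence, background-subtracted and normalized to DMSO. DC50 was taken from the half-maximal point of the first Hill component of a bell-shaped fit.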

Row | DC50 [µM] | Structure (SMILES)
1 | 0.00083 | O=C1CCC(n2ncc3cc(N4CCN(CC5CCN(c6ccc([C@@H]7c8ccc(O)cc8CO[C@@H]7c7ccccc7)cc6)CC5)CC4)ccc32)C(=O)N1 (stereo partly drawn) [Compound I-398, 3-(5-(4-((1-(4-((3S,4R)-7-hydroxy-3-phenylisochroman-4-yl)phenyl)piperidin-4-yl)methyl)piperazin-1-yl)-1H-indazol-1-yl)piperidine-2,6-dione]
2 | ≥ 10 | O=C1CC[C@H](N2Cc3cc(N4CCN(CC5CCN(c6ccc([C@H]7c8ccc(O)cc8CC[C@H]7C7CCCCCC7)cc6)CC5)CC4)ccc3C2=O)C(=O)N1 [Compound I-134, (3S)-3-[5-[4-[[1-[4-[(1S,2S)-2-cycloheptyl-6-hydroxy-tetralin-1-yl]phenyl]-4-piperidyl]methyl]piperazin-1-yl]-1-oxo-isoindolin-2-yl]piperidine-2,6-dione]
3 | ≥ 10 | CC1(C)CC([C@H]2CCc3cc(O)ccc3[C@H]2c2ccc(N3CCC(CN4CCN(c5ccc6c(c5)CN([C@H]5CCC(=O)NC5=O)C6=O)CC4)CC3)cc2)CC(C)(C)C1 [Compound I-116, (3.5)-3-[5-[4-[[1-[4-[(1S,2S)-6-hydroxy-2-(3,3,5,5-tetramethylcyclohexyl)tetralin-1-yl]phenyl]-4-piperidyl]methyl]piperazin-1-yl]-1-oxo-isoindolin-2-yl]piperidine-2,6-dione]
4 | 0.00077 | O=C1CCC(c2ccc(N3CCC4(CCN(CC5CCN(c6ccc([C@@H]7c8ccc(O)cc8CC[C@@H]7c7ccccc7)cc6)CC5)C4)CC3)cc2)C(=O)N1 (single isomer, unassigned) [Compound I-421]
5 | 0.00092 | O=C1CC[C@H](N2Cc3cc(N4CCN(CC5CCN(c6ccc([C@@H]7c8ccc(O)cc8C(F)(F)C[C@@H]7c7ccc(C(F)(F)F)cc7)cc6)CC5)CC4)ccc3C2=O)C(=O)N1 [Compound I-329, (S)-3-(5-(4-((1-(4-((1R,2S)-4,4-difluoro-6-hydroxy-2-(4-(trifluoromethyl)phenyl)-1,2,3,4-tetrahydronaphthalen-1-yl)phenyl)piperidin-4-yl)methyl)piperazin-1-yl)-1-oxoisoindolin-2-yl)piperidine-2,6-dione]
6 | ≥ 10 | O=C1CC[C@H](N2Cc3cc(N4CCN(CC5CCN(c6ccc([C@H]7c8ccc(O)cc8CO[C@H]7CC7CC7)cc6)CC5)CC4)ccc3C2=O)C(=O)N1 (single isomer, unassigned) [Compound I-231]
7 | 0.021 | C[C@@H]1Cc2cc(O)ccc2[C@H](c2ccc(N3CCC(CN4CCN(c5ccc6c(c5)CN([C@H]5CCC(=O)NC5=O)C6=O)CC4)CC3)cc2)[C@@H]1c1ccccc1 [Compound I-333, (S)-3-(5-(4-((1-(4-((1S,2R,3R)-6-hydroxy-3-methyl-2-phenyl-1,2,3,4-tetrahydronaphthalen-1-yl)phenyl)piperidin-4-yl)methyl)piperazin-1-yl)-1-oxoisoindolin-2-yl)piperidine-2,6-dione]
8 | 0.002 | O=C1CC[C@H](N2Cc3cc(N4CCN(CC5CCN(c6ccc([C@@H]7c8ccc(O)cc8CC[C@@H]7c7cccc8c7CCCC8)cc6)CC5)CC4)ccc3C2=O)C(=O)N1 (single isomer, unassigned) [Compound I-62]
9 | 0.021 | O=C1CC[C@H](N2Cc3cc(N4CCN(CC5CCN(c6ccc([C@H]7c8ccc(O)cc8CO[C@@H]7C7CCCCC7)cc6)CC5)CC4)ccc3C2=O)C(=O)N1 [Compound I-248, (S)-3-(5-(4-((1-(4-((3R,4S)-3-cyclohexyl-7-hydroxyisochroman-4-yl)phenyl)piperidin-4-yl)methyl)piperazin-1-yl)-1-oxoisoindolin-2-yl)piperidine-2,6-dione]
10 | 0.02 | O=C1CC[C@H](N2Cc3cc(N4CCN(CC5CCN(c6ccc([C@H]7c8ccc(O)cc8CO[C@H]7c7ccc(C(F)(F)F)cc7)cc6)CC5)CC4)ccc3C2=O)C(=O)N1 [Compound I-350, (S)-3-(5-(4-((1-(4-((3R,4S)-7-hydroxy-3-(4-(trifluoromethyl)phenyl)isochroman-4-yl)phenyl)piperidin-4-yl)methyl)piperazin-1-yl)-1-oxoisoindolin-2-yl)piperidine-2,6-dione]

Reference: patent US20250388565A1, “ESTROGEN RECEPTOR ALPHA DEGRADERS AND METHODS OF USE THEREOF” (Relay Therapeutics, Inc., priority 2022, published 2025)
